Measurements from patent US20050222263A1, “Compositions against stress-related diseases and methods for treating stress-related diseases” (Ajinomoto Co., Inc., priority 2002, published 2005).

Assays:
[1] = test system: animal model of irritable bowel syndrome (wrap-restraint stress); experiment: wrap-restraint stress irritable bowel syndrome model, amount of feces excreted; format: in vivo, Wistar male rats; details: oral, 40 minutes before wrap-restraint stress; lysine hydrochloride 1 g/kg, alprazolam 10 mg/kg; vs control
Protocol: An animal model of irritable bowel syndrome was prepared according to the method as described by Williams et al. (Williams, C. L., Villar, R. G., Peterson, J. M., Burks, T. F., “Stress-induced changes in intestinal transit in the rat: a model for irritable bowel syndrome,” Gastroenterol., vol. 94, pp. 611-621 (1988)). That is, a cotton tape was placed around the anterior limbs of seven-week-old Wistar male rats, the rats were kept in a bracket cage, and then the amount of feces excreted during 2 hours was measured. A test compound was orally administered 40 minutes before starting the wrap-restraint stress. The following groups were examined: 1) control group; 2) a group to which lysine hydrochloride (1 g/kg) alone was given; 3) a group to which a minor tranquilizer alprazolam (10 mg/kg; Takeda Chem. Ind.) alone was given; and 4) a combination group to which lysine hydrochloride (1 g/kg) and alprazolam (10 mg/kg) were given. Each group consisted of 10 animals.

[2] = test system: model for gastric ulcer caused by water immersion under restraint; experiment: water-immersion restraint stress gastric ulcer model, intragastric hemorrhage; format: in vivo, Wistar male rats; details: in powdered feed; paroxetine 298 mg/kg diet, lysine hydrochloride 13.3 g/kg diet, arginine 13.3 g/kg diet; water-immersion restraint stress 5 hours
Protocol: A widely used model for gastric ulcer caused by water immersion under restraint was used. That is, rats were placed in a stress cage and immersed in water to the chest for 5 hours (at a temperature of 22-25° C.). The stomach was removed and the degree of intragastric hemorrhage was observed and the hemorrhage area was calculated using an NHI image software.
The test compound was evaluated as follows. Five-week-old Wistar male rats were divided into three groups. The first group was bred with a normal powdered feed; the second group with a powdered feed to which was added a selective serotonin reuptake inhibitor (SSRI) (paroxetine; Glaxo-SmithKline; 298 mg/kg diet) alone; and the third group with a powdered feed containing the same amount of the same SSRI and lysine hydrochloride (13.3 g/kg diet) to which was additionally added arginine (13.3 g/kg diet). Each group consisted of 10 animals. Rats could freely feed before they reached 14 weeks of age. Thereafter, no feed and water were given for 2 days, and on day 3, all of the rats were subjected to the water-immersion restraint stress for 5 hours.

Compound | effect on stress-induced increase of amount of feces excreted during 2 hours [1] | intragastric hemorrhage (hemorrhage area) [2]
Cc1nnc2n1-c1ccc(Cl)cc1C(c1ccccc1)=NC2 [alprazolam] | no clear effect was observed | –
Cl.NCCCC[C@H](N)C(=O)O [lysine hydrochloride] | no clear effect was observed | –
Fc1ccc([C@@H]2CCNC[C@H]2COc2ccc3c(c2)OCO3)cc1 [SSRI, paroxetine] | – | significantly exacerbated the intragastric hemorrhage
